This note sets out measurements from PMC4979471 (Cell Death Discovery, 2015).

Assay in all cases: Kinase selectivity, P33-radiolabeled assay
Holding throughout (assay type): biochemical
Holding throughout (settings): 10 μM ATP

In one assay the target is T1, TSSK2 (Homo sapiens, UniProt Q96PF2).
T1 construct: purchased Reaction Biology Corp
T1 sequence (Q96PF2 1-358): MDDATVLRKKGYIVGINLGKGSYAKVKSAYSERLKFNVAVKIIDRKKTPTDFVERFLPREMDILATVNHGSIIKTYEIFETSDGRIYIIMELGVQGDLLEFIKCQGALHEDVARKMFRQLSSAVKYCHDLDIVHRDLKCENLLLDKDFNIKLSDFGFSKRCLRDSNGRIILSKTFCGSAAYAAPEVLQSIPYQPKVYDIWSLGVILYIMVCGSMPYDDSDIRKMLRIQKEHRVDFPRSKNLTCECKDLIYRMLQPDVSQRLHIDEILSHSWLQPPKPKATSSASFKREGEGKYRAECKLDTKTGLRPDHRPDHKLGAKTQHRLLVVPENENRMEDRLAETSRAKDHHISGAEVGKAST
Summed up: (§1)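 Activity relative to DMSO controls (%) was measured for compound at 10 μM. Assays ran at 10 μM ATP, in duplicate.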

The target in another assay is T2, LYN (Homo sapiens, UniProt P07948).
T2 construct: purchased Reaction Biology Corp
Summed up: as §1

A further assay has as its target T3, PKG2/PRKG2 (Homo sapiens, UniProt Q13237).
T3 construct: purchased Reaction Biology Corp
T3 sequence (Q13237 1-762): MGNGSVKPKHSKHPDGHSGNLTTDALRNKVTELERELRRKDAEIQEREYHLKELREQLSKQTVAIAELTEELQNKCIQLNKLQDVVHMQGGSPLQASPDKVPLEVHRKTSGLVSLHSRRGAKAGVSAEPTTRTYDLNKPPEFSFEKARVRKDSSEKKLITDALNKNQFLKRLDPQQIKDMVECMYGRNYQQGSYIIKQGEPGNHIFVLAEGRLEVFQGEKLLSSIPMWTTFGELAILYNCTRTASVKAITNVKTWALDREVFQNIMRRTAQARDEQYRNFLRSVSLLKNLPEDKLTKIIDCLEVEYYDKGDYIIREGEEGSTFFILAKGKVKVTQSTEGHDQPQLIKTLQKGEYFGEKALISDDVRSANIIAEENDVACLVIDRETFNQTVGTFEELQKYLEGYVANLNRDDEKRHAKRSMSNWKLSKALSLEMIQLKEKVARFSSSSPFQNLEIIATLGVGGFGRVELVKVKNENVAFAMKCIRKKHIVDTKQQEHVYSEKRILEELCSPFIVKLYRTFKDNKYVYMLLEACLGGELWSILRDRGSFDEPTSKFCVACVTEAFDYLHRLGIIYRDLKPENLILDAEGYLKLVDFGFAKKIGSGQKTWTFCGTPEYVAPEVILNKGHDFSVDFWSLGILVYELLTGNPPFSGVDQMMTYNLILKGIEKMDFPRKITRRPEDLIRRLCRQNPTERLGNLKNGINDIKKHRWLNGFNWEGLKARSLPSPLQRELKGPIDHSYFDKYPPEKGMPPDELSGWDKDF
Summed up: as §1

In a further assay the target is T4, MLK1/MAP3K9 (Homo sapiens, UniProt P80192).
T4 construct: purchased Reaction Biology Corp
In a few lines: as §1

The target of a further assay is T5, JAK3 (Homo sapiens, UniProt P52333).
T5 construct: purchased Reaction Biology Corp
T5 sequence (P52333 1-1124): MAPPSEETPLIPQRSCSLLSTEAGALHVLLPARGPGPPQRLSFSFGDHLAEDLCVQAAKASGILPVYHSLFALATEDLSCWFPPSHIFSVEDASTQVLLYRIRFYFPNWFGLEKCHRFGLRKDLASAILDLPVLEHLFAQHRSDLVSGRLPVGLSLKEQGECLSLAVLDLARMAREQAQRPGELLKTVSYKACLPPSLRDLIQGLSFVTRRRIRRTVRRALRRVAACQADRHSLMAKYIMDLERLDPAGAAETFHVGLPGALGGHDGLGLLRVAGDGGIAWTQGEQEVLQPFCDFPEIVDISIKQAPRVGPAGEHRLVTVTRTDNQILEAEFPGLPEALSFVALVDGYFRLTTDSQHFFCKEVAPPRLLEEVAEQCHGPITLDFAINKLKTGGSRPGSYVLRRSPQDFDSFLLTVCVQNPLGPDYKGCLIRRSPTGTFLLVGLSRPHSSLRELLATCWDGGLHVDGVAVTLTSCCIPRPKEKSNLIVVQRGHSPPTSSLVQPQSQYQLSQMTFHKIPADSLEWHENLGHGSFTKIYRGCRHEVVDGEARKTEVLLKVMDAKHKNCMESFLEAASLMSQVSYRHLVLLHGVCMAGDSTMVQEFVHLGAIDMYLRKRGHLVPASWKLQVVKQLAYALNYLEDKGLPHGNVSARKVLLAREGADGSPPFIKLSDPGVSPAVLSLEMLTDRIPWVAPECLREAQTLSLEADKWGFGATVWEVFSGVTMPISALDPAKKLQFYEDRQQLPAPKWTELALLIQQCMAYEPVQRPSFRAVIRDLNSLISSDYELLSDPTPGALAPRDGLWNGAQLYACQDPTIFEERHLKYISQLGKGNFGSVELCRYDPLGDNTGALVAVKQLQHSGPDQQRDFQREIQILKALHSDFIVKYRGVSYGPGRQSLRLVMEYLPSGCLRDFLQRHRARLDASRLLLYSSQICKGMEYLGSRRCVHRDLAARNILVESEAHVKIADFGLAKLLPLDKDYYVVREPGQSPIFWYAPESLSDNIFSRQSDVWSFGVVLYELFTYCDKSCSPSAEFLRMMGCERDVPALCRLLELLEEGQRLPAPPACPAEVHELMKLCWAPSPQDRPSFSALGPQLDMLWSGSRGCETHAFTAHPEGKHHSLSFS
In a few lines:
as §1

A further assay deals with T6, LOK/STK10 (Homo sapiens, UniProt O94804).
T6 construct: purchased Reaction Biology Corp
Summed up: as §1

Where [1] appears, read: read-out: % Enzyme Activity (relative to DMSO controls) AVG.
Where [2] appears, read: read-out: % Enzyme Activity (relative to DMSO controls) Data 1.
Setting [3] is: read-out: % Enzyme Activity (relative to DMSO controls) Data 2.

SMILES strings stand for the structures. Like-named read-outs stand apart in the source and are kept apart here.

T4 sequence (P80192 whole entry): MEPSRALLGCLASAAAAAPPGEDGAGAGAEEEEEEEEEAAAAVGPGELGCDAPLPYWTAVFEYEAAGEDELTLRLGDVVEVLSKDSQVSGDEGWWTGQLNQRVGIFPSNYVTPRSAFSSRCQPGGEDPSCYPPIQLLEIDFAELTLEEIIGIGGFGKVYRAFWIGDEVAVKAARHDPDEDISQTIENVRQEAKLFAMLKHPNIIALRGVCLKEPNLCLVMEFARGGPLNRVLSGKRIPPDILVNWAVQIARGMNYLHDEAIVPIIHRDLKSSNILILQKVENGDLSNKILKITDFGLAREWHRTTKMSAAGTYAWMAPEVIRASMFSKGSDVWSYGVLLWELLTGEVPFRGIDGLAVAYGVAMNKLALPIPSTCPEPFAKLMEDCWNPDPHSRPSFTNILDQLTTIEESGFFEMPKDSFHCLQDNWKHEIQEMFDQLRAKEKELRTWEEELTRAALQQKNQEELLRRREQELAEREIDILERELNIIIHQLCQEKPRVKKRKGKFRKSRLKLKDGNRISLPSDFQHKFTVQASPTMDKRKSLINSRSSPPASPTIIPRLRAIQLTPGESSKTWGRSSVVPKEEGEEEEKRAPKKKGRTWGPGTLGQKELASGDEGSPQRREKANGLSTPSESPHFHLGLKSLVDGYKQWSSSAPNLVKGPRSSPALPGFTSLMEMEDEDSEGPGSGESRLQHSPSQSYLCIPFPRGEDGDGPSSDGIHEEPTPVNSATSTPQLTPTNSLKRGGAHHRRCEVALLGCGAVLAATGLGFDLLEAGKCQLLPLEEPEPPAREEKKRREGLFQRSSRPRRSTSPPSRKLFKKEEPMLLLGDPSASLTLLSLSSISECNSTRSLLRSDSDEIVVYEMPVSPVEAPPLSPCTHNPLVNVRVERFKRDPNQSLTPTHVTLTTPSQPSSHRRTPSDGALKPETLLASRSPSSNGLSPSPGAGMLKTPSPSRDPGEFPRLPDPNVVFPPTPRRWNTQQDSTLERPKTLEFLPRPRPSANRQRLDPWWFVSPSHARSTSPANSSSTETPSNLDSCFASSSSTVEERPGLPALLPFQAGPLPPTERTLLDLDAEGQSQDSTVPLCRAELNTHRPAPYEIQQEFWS
T6 sequence (O94804 whole entry): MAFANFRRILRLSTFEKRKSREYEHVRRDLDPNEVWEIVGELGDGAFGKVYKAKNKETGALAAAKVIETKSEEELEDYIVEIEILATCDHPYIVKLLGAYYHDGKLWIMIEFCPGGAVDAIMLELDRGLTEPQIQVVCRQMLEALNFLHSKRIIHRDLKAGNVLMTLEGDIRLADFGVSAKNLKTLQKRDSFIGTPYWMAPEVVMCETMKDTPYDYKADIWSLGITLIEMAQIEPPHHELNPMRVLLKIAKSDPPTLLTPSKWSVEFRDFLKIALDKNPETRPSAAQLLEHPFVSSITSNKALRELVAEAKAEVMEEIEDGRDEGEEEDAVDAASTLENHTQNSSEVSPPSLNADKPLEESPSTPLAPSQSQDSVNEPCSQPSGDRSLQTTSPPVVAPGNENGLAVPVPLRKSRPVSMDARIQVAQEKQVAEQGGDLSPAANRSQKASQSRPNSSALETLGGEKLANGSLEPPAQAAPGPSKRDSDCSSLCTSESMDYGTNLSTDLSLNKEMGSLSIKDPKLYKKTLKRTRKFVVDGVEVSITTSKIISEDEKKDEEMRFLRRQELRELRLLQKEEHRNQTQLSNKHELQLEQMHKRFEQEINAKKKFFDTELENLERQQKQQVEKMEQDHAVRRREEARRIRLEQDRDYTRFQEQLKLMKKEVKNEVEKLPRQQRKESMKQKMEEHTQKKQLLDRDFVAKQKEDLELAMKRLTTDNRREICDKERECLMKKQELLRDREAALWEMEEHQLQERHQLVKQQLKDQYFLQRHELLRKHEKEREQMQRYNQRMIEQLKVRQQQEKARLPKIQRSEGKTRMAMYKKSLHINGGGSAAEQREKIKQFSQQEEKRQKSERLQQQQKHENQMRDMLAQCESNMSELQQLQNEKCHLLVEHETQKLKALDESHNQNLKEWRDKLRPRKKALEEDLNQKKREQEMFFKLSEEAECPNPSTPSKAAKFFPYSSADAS
T2 sequence (P07948 whole entry): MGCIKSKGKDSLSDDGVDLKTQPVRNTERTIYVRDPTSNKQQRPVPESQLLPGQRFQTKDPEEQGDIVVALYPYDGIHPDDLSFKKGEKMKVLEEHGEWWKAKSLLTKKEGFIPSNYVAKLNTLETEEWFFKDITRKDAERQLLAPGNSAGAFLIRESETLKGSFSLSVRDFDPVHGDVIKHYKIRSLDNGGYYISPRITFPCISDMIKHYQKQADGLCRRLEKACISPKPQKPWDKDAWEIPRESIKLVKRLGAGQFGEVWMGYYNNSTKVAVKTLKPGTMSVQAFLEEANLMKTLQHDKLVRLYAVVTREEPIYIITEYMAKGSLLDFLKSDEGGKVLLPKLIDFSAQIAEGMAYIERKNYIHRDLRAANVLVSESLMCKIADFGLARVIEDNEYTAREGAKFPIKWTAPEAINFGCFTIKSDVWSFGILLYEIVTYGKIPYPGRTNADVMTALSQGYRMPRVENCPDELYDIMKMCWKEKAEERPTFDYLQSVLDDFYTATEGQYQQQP

Regarding `CC(C)(C)C(=O)N1N=CC[C@H]1c1ccccc1` [GSK′963], the remaining activity at 10 µM on TSSK2 (setting [1]) turned out to be 104%; at TSSK2 (setting [2]), 102%; on TSSK2 (setting [3]), 105%; on LYN (setting [1]), 107%; at LYN (setting [2]) it was 109%; at LYN (setting [3]) it was 105%. The remaining activity at 10 µM is 105% at PKG2/PRKG2 (setting [1]); 98.2% on PKG2/PRKG2 (setting [2]); 112% at PKG2/PRKG2 (setting [3]); 110% at MLK1/MAP3K9 (setting [1]); 108% at MLK1/MAP3K9 (setting [2]); 112% on MLK1/MAP3K9 (setting [3]). For the same molecule, the remaining activity at 10 µM at JAK3 (setting [1]) is 106%; on JAK3 (setting [2]), 105%; at JAK3 (setting [3]), 106%; on LOK/STK10 (setting [1]) it was 94%; on LOK/STK10 (setting [2]), 93.1%; at LOK/STK10 (setting [3]), 95%.
